In brackets after ≈: the same amount, converted by molar mass. Several values for one entry are separate records, joined by “and”; a condition that tells them apart may be missing. Equal values may be shown once. Read-outs that look alike come from different tables or passages of the source.
Key:
[1] = Cytotoxicity in growing (rapidly dividing) HFF; type: cell-based, human; details: human, growing hff cells
[2] = tested on: HSV-1 (herpes simplex type 1); test: microbe, parasite or virus in culture
Source text: (§1) Compounds 25 and 26 are (S)-methanocarba-T and (±)-(carba-T), respectively. (±)-carba-T was kindly provided by Dr. Y. Fulmer Shealy, Southern Research Institute, Birmingham, Ala. [drawing 5]

[3] = tested on: HSV-2 (herpes simplex type 2); test: microbe, parasite or virus in culture
Source text: as §1

[4] = Cytotoxicity in host cells / stationary cells (HFF); type: cell-based, human; details: human, hff cells
Source text: (§2) ^d CC50 = cytotoxic concentration in μg/mL that produces 50%

herpes viruses = test: Antiherpetic activity, overall; type: cell-based; details: in words
[5] = tested on: HCMV (human cytomegalovirus); test: microbe, parasite or virus in culture; type: cell-based
Source text: | ^f plaque reduction assay.

[6] = tested on: HCMV (human cytomegalovirus); test: microbe, parasite or virus in culture; type: cell-based; details: for EC50: Human betaherpesvirus 5, Table 5, HCMV, read-out: EC50
[7] = tested on: HFF (human foreskin fibroblasts); test: Cytotoxicity in host cells / stationary cells (HFF); type: cell-based; details: Table 5; host cell not given
Source text: as §2

EBV (Epstein-Barr virus) = test: microbe, parasite or virus in culture; type: cell-based; details: human gammaherpesvirus 4, EBV
Source text: as §1

[8] = Human alphaherpesvirus 1, Table 5, HSV-1
[9] = Human alphaherpesvirus 2, Table 5, HSV-2

| SMILES | EC50 [6] | EC50 [2, 8] | EC50 [3, 9] | SI (CC50/EC50) [2] | SI (CC50/EC50) [3] | SI (CC50/EC50) [6] | CC50 ([4]; Table 5, host cell not given) | other results |
| --- | --- | --- | --- | --- | --- | --- | --- | --- |
| Cc1cn([C@@H]2C[C@H](CO)[C@@H](O)C2)c(=O)[nH]c1=O (relative stereo) [Compound 26, (±)-(carba-T), reference compound] |  |  |  | 1 | 1 |  |  | CC50 ([1]; rapidly dividing cells, read-out: CC50): 0.65 µg/mL (≈ 2.71 µM); EC50 ([2]; Human alphaherpesvirus 1, Table 4, HSV-1, plaques reduced by 50%): > 10 µg/mL; EC50 ([3]; Human alphaherpesvirus 2, Table 4, HSV-2, plaques reduced by 50%): > 10 µg/mL; CC50 ([4]; Table 4, HSV-1 and HSV-2 lines, host cell not given): > 10 µg/mL; CC50 ([4]; stationary cells): > 100 µg/mL; antiherpetic activity (herpes viruses): did not exhibit antiherpetic activity |
| Nc1ncnc2c1ncn2[C@@]12C[C@H](O)[C@@H](CO)[C@@H]1C2 [(S)-DMC-A, reference compound] | 6.4 µg/mL (≈ 24.5 µM) | > 100 µg/mL | > 100 µg/mL | 1 | 1 | > 15.6 | > 100 µg/mL | EC50 ([5]; Human betaherpesvirus 5, Table 5, HCMV, plaque reduction assay, read-out: EC50): 2.4 µg/mL (≈ 9.19 µM); SI (CC50/EC50) ([5]; human foreskin fibroblasts): > 41.7; activity against HCMV ([6]; in words): active against HCMV |
| Nc1ccn([C@@]23C[C@H](O)[C@@H](CO)[C@@H]2C3)c(=O)n1 [(S)-DMC-C, reference compound] | 88.9 µg/mL (≈ 375 µM) | > 4 µg/mL | > 4 µg/mL | < 3.7 | < 3.7 | > 1.1 |  |  |
| Nc1nc2c(ncn2[C@@]23C[C@H](O)[C@@H](CO)[C@@H]2C3)c(=O)[nH]1 [(S)-DMC-G, reference compound] | > 20 µg/mL | > 20 µg/mL | > 20 µg/mL | < 3.7 | < 3.7 | < 2.3 |  |  |
| O=c1ccn([C@@]23C[C@H](O)[C@@H](CO)[C@@H]2C3)c(=O)[nH]1 [(S)-DMC-U, reference compound] | > 100 µg/mL | > 20 µg/mL | > 20 µg/mL | < 3.0 | < 3.0 | 1 | 59.1 µg/mL (≈ 248 µM) | CC50 [7]: > 100 µg/mL |
| Nc1nc2c(ncn2COCCO)c(=O)[nH]1 [ACV, acyclovir, reference compound] |  |  |  |  |  |  |  | CC50 ([1]; Table 3, no virus, Growing HFF, positive control, read-out: Positive Control EC50 (line Growing HFF)): 40 µg/mL (≈ 178 µM); EC50 ([2]; Human alphaherpesvirus 1, read-out: ACV (EC50), Table 4, HSV-1, acyclovir control): 0.3 µg/mL (≈ 1.33 µM); EC50 ([2]; Human alphaherpesvirus 1, read-out: Positive Control EC50, Table 3, HSV-1, HFF, positive control): 0.8 µg/mL (≈ 3.55 µM); ACV (EC50) ([2]; Table 4, HSV-1, acyclovir control): 0.15 µg/mL; Control EC50 ([2]; Table 5, HSV-1, control): 0.20 µg/mL; EC50 ([3]; Human alphaherpesvirus 2, read-out: ACV (EC50), Table 4, HSV-2, acyclovir control): 0.8 µg/mL (≈ 3.55 µM); EC50 ([3]; Human alphaherpesvirus 2, read-out: Positive Control EC50, Table 3, HSV-2, HFF, positive control): 4 µg/mL (≈ 17.8 µM); ACV (EC50) ([3]; Table 4, HSV-2, acyclovir control): 0.60 µg/mL; Control EC50 ([3]; Table 5, HSV-2, control): 1.8 µg/mL and 1.5 µg/mL; EC50 (EBV (Epstein-Barr virus); Table 3, Daudi, positive control, read-out: Positive Control EC50): 0.1 µg/mL (≈ 0.444 µM); EC50 (EBV (Epstein-Barr virus); Table 4, acyclovir control, read-out: ACV (EC50)): 0.1 µg/mL (≈ 0.444 µM) |
